In PubChem BioAssay (NCI):
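A five-concentration, 48-hour dose response in 96-well plates underlies each endpoint, interpolated linearly between surrounding concentrations. GI50 marks 50% less growth. The concentration for full growth arrest is given as TGI.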

Legend:
Test in all cases: NCI anticancer screen, dose series, 48 h
NCI-H522 lung = test system: NCI-H522 lung
SNB-75 CNS = test system: SNB-75 CNS
OVCAR-5 ovarian = test system: OVCAR-5 ovarian
NCI/ADR-RES ovarian = test system: NCI/ADR-RES ovarian
IGROV1 ovarian = test system: IGROV1 ovarian
HT29 colon = test system: HT29 colon
OVCAR-3 ovarian = test system: OVCAR-3 ovarian
EKVX NSCLC = test system: EKVX NSCLC
COLO 205 colon = test system: COLO 205 colon
SN12C renal = test system: SN12C renal

Structure (SMILES) | GI50 (NCI-H522 lung) [µM] | TGI (NCI-H522 lung) [µM] | GI50 (SNB-75 CNS) [µM] | TGI (SNB-75 CNS) [µM] | GI50 (OVCAR-5 ovarian) [µM] | TGI (OVCAR-5 ovarian) [µM] | GI50 (NCI/ADR-RES ovarian) [µM] | TGI (NCI/ADR-RES ovarian) [µM] | GI50 (IGROV1 ovarian) [µM] | TGI (IGROV1 ovarian) [µM] | GI50 (HT29 colon) [µM] | TGI (HT29 colon) [µM] | GI50 (OVCAR-3 ovarian) [µM] | TGI (OVCAR-3 ovarian) [µM] | GI50 (EKVX NSCLC) [µM] | TGI (EKVX NSCLC) [µM] | GI50 (COLO 205 colon) [µM] | TGI (COLO 205 colon) [µM] | GI50 (SN12C renal) [µM] | TGI (SN12C renal) [µM]
C=CN(C(=O)N1CCN(c2cc3c(cc2F)c(=O)c(C(=O)O)cn3C2CC2)CC1)c1nc(-c2ccc(OC)cc2)cs1 | 2.67 | 6.95 | 2.51 | 6.7 | 5.13 | > 100 | 3.07 | 9.07 | 3.89 | > 100 | 3.42 | > 100 | 3.29 | > 100 | 4.12 | > 100 | 2.54 | 6.59 | 3.14 | > 100
O=C(NCCCCN1CCOCC1)c1cc2ccccc2o1 | > 100 | > 100 | > 100 | > 100 | > 100 | > 100 | > 100 | > 100 | > 100 | > 100 | > 100 | > 100 | > 100 | > 100 | > 100 | > 100 | > 100 | > 100 | > 100 | > 100
CCc1cccc(C(C)C)c1NC(=O)C(=O)C1C(=O)Nc2ccccc2S1=O (centres undefined) |  | > 100 |  | > 100 |  | > 100 |  | > 100 |  | > 100 |  | > 100 |  | > 100 |  | > 100 |  | > 100 |  | > 100
CC(=O)O[C@@H]1C2CCC3C(CC[C@@]4(C)C3CC[C@@H]4C(C)N(C)C)[C@@]2(C)CC[C@@H]1NC(=O)C=C(C)C (some centres undefined) | 2.74 | 8.58 | 2.35 | 9.31 | 3.33 | 14.1 | 4.26 | 17.7 | 4.76 | 16 | 0.552 | 1.97 | 2.24 | 7.42 | 2.8 | 16.6 | 1.62 | 3.1 | 3.2 | 12.3
O=c1oc2ccc(I)cc2c(=O)n1-c1ccc(Br)cc1F | 0.396 | 4.85 | 0.374 | 2.48 | 3.55 | > 100 | 0.798 | 6.09 | 0.745 | 13.3 | 3.3 | 13.5 | 0.511 | 8.89 | 1.34 | 7.11 | 3.19 | 11.6 | 0.546 | 5.7
COc1ccc(Nc2nc3cc(N)cc(N)c3nc2-c2ccccc2)cc1 | 14.7 | 27.9 | 14.6 | 42.6 | 21.5 | 53.4 | 18.9 | 44.9 | 15.4 | 35.8 |  | 42.7 | 17.3 | 37.3 | 26 | > 100 | 15.7 | 29.2 | 20.6 | 57.4
Cc1cc2nc(NCCN)n(Cc3ccc(F)c(Cl)c3)c2cc1C | 19.5 | 35.1 | 10.6 | 23.4 | 13.7 | 28.3 | 16.3 | 32.1 | 11.7 | 27.5 | 11.7 | 24.5 | 12.8 | 27 | 13.8 | 28.4 | 1.68 | 3.38 | 15.1 | 29.8
CCc1ccc(Oc2c(-c3ccc(OCc4ccc(Cl)cc4)cc3O)n[nH]c2C(F)(F)F)cc1 | 1.72 | 4.33 | 1.48 | 5.8 | 1.89 | 3.95 | 2.11 | 4.85 | 2.33 | 6.87 | 2 | 3.95 | 1.78 | 3.28 | 1.89 | 4.34 | 1.71 | 3.27 | 1.72 | 3.35
Cc1nc([N+](=O)[O-])cn1-c1nc2ccccn2c1[N+](=O)[O-] |  | > 100 |  | 63.7 |  | > 100 |  | > 100 |  | > 100 |  | > 100 |  | > 100 |  | > 100 |  | > 100 |  | > 100
CNC(=O)c1c(C)oc2cc(Oc3ncnc4cc(OC)c(OC)cc34)ccc12 | > 100 | > 100 | 2.35 | > 100 | > 100 | > 100 | > 100 | > 100 | > 100 | > 100 | > 100 | > 100 | > 100 | > 100 | > 100 | > 100 | > 100 | > 100 | > 100 | > 100
O=C(O)CCNCC(=O)O |  | > 100 |  | > 100 |  | > 100 |  | > 100 |  | > 100 |  | > 100 |  | > 100 |  | > 100 |  | > 100 |  | > 100
COc1ccc(/C=C\c2cc(OC)c(OC)c(OC)c2)cc1OCC(=O)Nc1nc2ccc(F)cc2s1 | 2.92 | > 100 | 4.39 | > 100 | > 100 | > 100 | 2.55 | > 100 | 4.17 | > 100 | 9.63 | > 100 | 9.99 | > 100 | 5.72 | > 100 | 7.78 | > 100 | 4.61 | > 100
O=c1c2ccccc2sc2c(NCCCNCCO)nc3ccccc3c12 | 1.82 | 3.57 | 1.64 | 4.32 | 1.56 | 3.31 | 1.86 | 4.56 | 1.35 | 3.17 | 1.51 | 2.97 | 1.81 | 3.65 | 1.67 | 4.58 | 1.47 | 3.23 | 1.47 | 3.24
O=C1Nc2c(ccc(Cl)c2Cl)/C1=C/c1cc(Br)c(O)c(Br)c1 | 3.06 | > 28.6 | 9 | 83.2 | 20.6 | > 74 | 2.95 | > 24.1 | 8.91 | > 55.8 | 4.05 | 23.7 | 3.14 | 12 | 4.54 | 97.3 | 5.05 | 27.4 | 10.7 | > 100
